Assay results taken from PMC3865801 (Journal of Medicinal Chemistry, 2013).
“Also recorded” adds a separate entry of the source. Where two headings read alike, the source gives them in different places.

Tests used:
[1] = Aqueous solubility of parent compound and sodium salt
[2] = biological target: T1, recombinant purified mouse perforin (Mus musculus, UniProt P10820); assay: Inhibitor binding to immobilized perforin by SPR (Biacore T200); details: for Kd: single site specific binding model, read-out: calculated KD; for binding to immobilized perforin by SPR: analyte ≤2.5 μM, 5% DMSO running buffer
T1 sequence (P10820 21-554): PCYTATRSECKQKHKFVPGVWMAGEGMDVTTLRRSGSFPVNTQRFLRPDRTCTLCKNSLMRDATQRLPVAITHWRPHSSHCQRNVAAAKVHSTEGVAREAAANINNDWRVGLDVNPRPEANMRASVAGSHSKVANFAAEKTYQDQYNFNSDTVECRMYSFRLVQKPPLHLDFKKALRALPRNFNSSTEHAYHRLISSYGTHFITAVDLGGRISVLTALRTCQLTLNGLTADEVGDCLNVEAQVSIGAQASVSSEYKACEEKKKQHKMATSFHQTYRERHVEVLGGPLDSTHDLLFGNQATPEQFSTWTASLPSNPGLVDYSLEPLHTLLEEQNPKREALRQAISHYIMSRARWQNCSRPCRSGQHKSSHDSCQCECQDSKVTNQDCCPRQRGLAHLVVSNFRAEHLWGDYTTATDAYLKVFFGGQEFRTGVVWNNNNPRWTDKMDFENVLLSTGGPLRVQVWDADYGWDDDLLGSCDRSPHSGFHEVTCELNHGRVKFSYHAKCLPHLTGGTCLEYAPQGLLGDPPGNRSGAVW
Source text: While several series of potent inhibitors have now been identified,[23]−[26] little is known about the mechanism by which the cytolytic activity of perforin action is blocked. In order to find out more about the nature and degree of inhibitor binding, recombinant purified mouse perforin was immobilized on a surface plasmon resonance (SPR) S-series CM5 sensor chip using standard amide coupling methodology.
Binding experiments with surface immobilized wild-type perforin monomers on a S-series CM5 sensor chip (GE Healthcare Life Sciences) were carried out using a Biacore T200 SPR machine (GE Healthcare Life Sciences). Perforin monomer solution (25 μg/mL in 10 mM sodium acetate, pH 5.5) was injected over the sensor chip surface under standard amide coupling conditions to obtain covalent binding of the protein (density = 4257 RU). The initial and running buffers were made from a 10× stock solution of HEPES buffered saline (HBS). 10× HBS (50 mL) was diluted to 500 mL with water and filtered through a 0.22 μm filter (initial buffer). This initial buffer (380 mL) was added to DMSO (20 mL) to prepare the 5% DMSO running buffer. Stock solutions (2.5 mM) of compound were prepared in 100% DMSO. These solutions were diluted in HEPES initial buffer to 5% DMSO (125 μM) and then subsequently diluted to the required concentrations using HEPES running buffer containing 5% DMSO to maintain a constant DMSO concentration. A solvent correction was run before and after the injections to account for differences in DMSO concentrations between buffer and analyte solutions.

[3] = biological target: T2, purified recombinant perforin (Mus musculus, UniProt P10820); assay: cell-based; assay type: cell-based; details: lysis of Jurkat cells by purified recombinant perforin, 51Cr release, 0.1% BSA; average of at least three determinations; read-out: inhibition of Jurkat cell lysis, IC50
T2 sequence (P10820 21-554): T1 sequence (P10820 21-554)
Procedure: The ability of the compounds to inhibit the lysis of nucleated (Jurkat T lymphoma) cells in the presence of 0.1% BSA was measured by release of ^51Cr label. Jurkat target cells were labeled by incubation in medium with 100 μCi ^51Cr for 1 h. The cells were then washed three times to remove unincorporated isotope and resuspended at 1 × 10^5 cells per milliliter in RPMI buffer supplemented with 0.1% BSA. […] Each data point was performed in triplicate, and an IC50 was calculated from the range of concentrations described above.

KHYG-1 NK cells = assay: Toxicity to KHYG-1 NK cells (Trypan blue exclusion); assay type: cell-based, human; details: 5 μM, viability after 24 h
Procedure: The toxicity assay was carried out in exactly the same manner as the killing assay above, but instead of adding the labeled K562 target cells, 100 μL of RPMI 0.1% BSA was added. Cells were incubated for 4 h at 37 °C and then washed ×3 in RPMI + 0.1% BSA. […] Trypan blue was added to each well. Viable (clear) cells and total (clear + blue) cells were counted, and the percentage of viable cells was calculated compared to DMSO treated cell control (% viability).

[4] = biological target: T3, perforin delivered by primary human natural killer cells to HeLa cells (Homo sapiens, UniProt P14222); assay: Time-lapse microscopy of the cytotoxic immunological synapse (primary NK cells and HeLa targets); assay type: cell-based; details: 20 μM, primary human NK cells, HeLa targets
T3 construct: degranulation and the release of perforin into the synaptic cleft; endogenous in cells; host or cells: primary human NK cells from peripheral blood of four donors (HeLa target cells)
T3 sequence (P14222 22-555): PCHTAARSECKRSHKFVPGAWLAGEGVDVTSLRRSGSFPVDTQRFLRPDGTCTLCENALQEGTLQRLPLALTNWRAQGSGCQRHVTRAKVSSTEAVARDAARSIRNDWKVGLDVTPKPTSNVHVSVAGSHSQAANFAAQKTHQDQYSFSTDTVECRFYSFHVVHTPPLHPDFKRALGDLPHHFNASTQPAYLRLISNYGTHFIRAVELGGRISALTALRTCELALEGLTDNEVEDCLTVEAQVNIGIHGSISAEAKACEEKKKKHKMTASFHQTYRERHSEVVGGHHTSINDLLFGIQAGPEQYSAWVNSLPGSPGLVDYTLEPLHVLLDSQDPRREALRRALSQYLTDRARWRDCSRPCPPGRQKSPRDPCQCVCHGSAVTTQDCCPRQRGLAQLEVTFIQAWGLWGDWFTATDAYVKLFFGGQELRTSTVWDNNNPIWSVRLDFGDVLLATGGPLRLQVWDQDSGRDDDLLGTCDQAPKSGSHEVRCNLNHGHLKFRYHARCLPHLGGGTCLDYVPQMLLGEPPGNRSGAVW
Procedure: Time-lapse microscopy and image analysis were performed as described previously.[42] In brief, primary human natural killer cells were isolated from the peripheral blood of four unrelated donors using negative selection, as described in the above reference. […] All experiments were performed at 37 °C/5% CO2.

[5] = SI Figure 2: 0, 0.25, 1.25 and 2.5 µM
[6] = SI Figure 3: further dilution series 0–2.5 µM

Structure (SMILES) | solubility ([1]; aqueous medium (not further specified)) [µg/mL] | calculated Rmax [2, 5] [RU] | Kd [2, 5] [nM] | calculated Rmax [2, 6] [RU] | Kd [2, 6] [nM] | binding to immobilized perforin by SPR [2] | IC50 [3] [nM] | solubility [1] [µg/mL] | KHYG-1 viability (KHYG-1 NK cells) | synapses in which formation of the perforin pore was blocked [4] [%] | killer cells that delivered functional perforin to the target ([4]; DMSO control: every cell) [%]
CC1c2cc(-c3ccc(/C=C4/NC(=S)NC4=O)s3)ccc2C(=O)N1C (stereo not shown) [compound 135, (E,Z)-2,3-Dimethyl-5-(5-((5-oxo-2-thioxoimidazolidin-4-ylidene)methyl)thiophen-2-yl)isoindolin-1-one] | 1.32 | 1.23 ± 0.10 | 1790 ± 550 | 8.66 ± 2.81 | 2390 ± 1230 | saturable binding; also recorded: bind reversibly | 3210 |  |  |  | 
O=C1NC(=S)N/C1=C/c1ccc(-c2ccc3c(c2)CCNC3=O)s1 [compound 167] |  |  |  |  |  | linear concentration response; also recorded: bind reversibly | 1140 | 0.53 | lack of NK toxicity | 40 | 60
